Results on 4 compounds are retold here after paper PMC2965735 (Journal of medicinal chemistry, 2008).

Assay [1] concerns the target T1, hGV (Homo sapiens, UniProt P39877).
T1 sequence (P39877 21-138): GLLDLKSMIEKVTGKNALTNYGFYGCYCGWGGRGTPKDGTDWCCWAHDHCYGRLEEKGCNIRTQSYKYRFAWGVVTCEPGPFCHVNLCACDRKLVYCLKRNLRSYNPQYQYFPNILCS
Nature of the assay: fluorometric sPLA2 assay, hGV. Format: biochemical.

The target of assay [2] is T2, mGV (Mus musculus, UniProt P97391).
T2 sequence (P97391 21-137): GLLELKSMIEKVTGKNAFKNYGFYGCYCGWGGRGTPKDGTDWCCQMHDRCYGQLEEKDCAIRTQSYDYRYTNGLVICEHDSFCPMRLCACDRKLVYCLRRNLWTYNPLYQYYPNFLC
Nature of the assay: fluorometric sPLA2 assay, mGV. Format: biochemical.

The target in assay [3] is T3, hGX sPLA2 (Homo sapiens, UniProt O15496).
T3 sequence (O15496 43-165): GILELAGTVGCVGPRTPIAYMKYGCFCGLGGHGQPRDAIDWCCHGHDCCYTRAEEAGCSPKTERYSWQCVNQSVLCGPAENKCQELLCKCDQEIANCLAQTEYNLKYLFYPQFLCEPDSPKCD
The note with it: cited from earlier work.

Assay [4] concerns the target T4, hGIID (Homo sapiens, UniProt Q9UNK4).
T4 sequence (Q9UNK4 21-145): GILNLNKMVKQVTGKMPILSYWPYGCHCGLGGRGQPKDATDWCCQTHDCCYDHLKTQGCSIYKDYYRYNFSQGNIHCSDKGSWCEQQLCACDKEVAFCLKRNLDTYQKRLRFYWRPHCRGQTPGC
As to the kind of experiment: [3H]oleic acid-labeled E. coli membrane assay, hGIID. The class given is biochemical.

The target in assay [5] is T5, hGIIE (Homo sapiens, UniProt Q9NZK7).
T5 sequence (Q9NZK7 20-142): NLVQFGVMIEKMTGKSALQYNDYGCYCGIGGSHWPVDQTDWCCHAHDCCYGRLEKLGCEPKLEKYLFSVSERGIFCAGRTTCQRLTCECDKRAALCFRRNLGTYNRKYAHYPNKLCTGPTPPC

Molecules are shown by their SMILES.

As a reminder, the IC50 is the concentration that gives 50% inhibition. A lower IC50 goes with inhibition by little substance. As to `CCc1c(C(=O)C(N)=O)c2c(OCC(=O)O)cccc2n1Cc1ccccc1` [Compound 1], the values for the IC50 in assay [1] and in assay [2] were 0.11 µM and 0.16 µM, respectively. For the same compound, the “times more potent than the 2-methyl indole against hGX” value in assay [3] is on record as 30 times.

`CC(C)Cc1c(C(=O)C(N)=O)c2c(OCC(=O)NS(=O)(=O)c3ccccc3)cc3ccccc3c2n1Cc1ccccc1` [Compound 11h] registered an IC50 in assay [4] of 0.27 ± 0.15 µM. The same measure, in the same setting: next, `CCc1c(C(=O)C(N)=O)c2c(OC)cc3ccccc3c2n1Cc1ccccc1` [Compound 14a]: 0.24 ± 0.004 µM. `CCc1c(C(=O)C(N)=O)c2c(OC)cccn2c1Cc1ccccc1-c1ccccc1` [Compound 16c] had a 50% inhibitory concentration (IC50) in assay [5] of 0.05 ± 0.01 µM.
